Laboratory results from patent publication US20260365696A1, “INHIBITORS OF PTP1B / NCK1 INTERACTION AND METHODS OF MAKING AND USING SAME” (Radella Pharmaceuticals LLC, priority 2023, published 2026).
“Also recorded” adds a separate entry of the source.

What was measured:
[1] = In vivo biodistribution / pharmacokinetics in C57/BL6 mice; set-up: species or system mouse; conditions: 30 mg/kg IP
Method: FIG. 6 is a graph showing MD20 concentrations in the indicated tissues in a mouse following intraperitoneal (IP) administration of the peptide at a dose of 30 mg/kg. Tissue samples were collected at 0, 0.25, 0.5, 1, 2, 4, 8, and 24 hours post-injection.
Biodistribution: In vivo pharmacokinetic assessments of biodistribution of MD20 were performed in C57/BL6 male mice. All animals were maintained under a 12 h light/dark cycle with free access to food and water, where temperature and humidity was controlled according to UK Home Office regulations. MD20 compound was dissolved in PBS and administered to animals via intraperitoneal (IP) injection at a dose of 30 mg/kg. Mice were sacrificed at eight different time points (0.25, 0.5, 1, 3, 4, 6, 8 and 24 h house post-dosing; n=3 animals per time point, 24 animals in total). Terminal blood (in EDTA-containing tubes for plasma), perfused liver, muscle, adipose, kidney and brain samples were collected and kept on dry ice. Blood samples were centrifuged (4 °C, 21,100 g for 5 min) and the resulting plasma was transferred in to corresponding tubes. All samples were analyzed using LC-MS and appropriate methods.

[2] = system: db/db mice; assay: db/db genetic mouse model of diabetes and obesity; assay type: in vivo
Text: Animals: All animals were housed and tested following European (Directive on the Protection of Animals used for Scientific Purposes, 2010/63/EU) and UK Home Office regulations. Experiments were approved by the University Ethics Board and carried out in accordance with the Animal (Scientific Procedures) Act 1986 and following ARRIVE guidelines. Db/db male mice (~4 weeks old) were purchased from Jackson, USA. All mice received standard mouse chow diet and had ad libitum access to food and water and were kept in a 12 h light/dark cycle.
Treatments: Mice were assigned and counterbalanced according to their body weights in to the following groups: control PBS (n=10); MD18 at 15 mg/kg (n=7), 30 mg/kg (n=8), or 45 mg/kg (n=7); or MD20 at 15 mg/kg (n=9), 30 mg/kg (n=10) or 45 mg/kg (n=7). MD18 and MD20 were administered once daily via subcutaneous (SC) injection for 41 days, whereas control mice received a daily SC injection of vehicle (PBS). MD18 and MD20 were kept in −20 °C and dissolved in sterile phosphate buffered saline (PBS).
Body weights and body mass composition: Body weights were recorded twice weekly during the study, and fat mass and lean mass composition was analysed using an EchoMRI scanner (EchoMedical Systems, Houston, TX, U.S.A.).
Metabolic measurements: All animals were five-hour fasted before obtaining basal glucose measurements and GTT, ITT, and corresponding treatments were administered 1 hour before glucose measurements. Tail blood glucose was measured using AlphaTRAK 2 glucose strips and glucometer (Abbot, UK), or blood was collected and glucose assay (AB65333, Abcam) was performed where readings were too high to be recorded via glucometer. Human Actrapid Insulin (NovaNordisk) at 1 IU/kg dose was administered during ITT.
Serum and liver assays: Trunk-derived blood was collected from 5 h-fasted mice into serum separator microtubes and kept at −80 °C. Serum was used for insulin (#EZRMI-13K, Merck) and leptin (#90030, Crystal Chem) analyses.
Statistical analyses: Data were reported as means±SEM and analysed using one- or two-way ANOVA with Bonferroni post hoc tests, as appropriate. GraphPad Prism (V8, GraphPad Software, Inc., San Diego, California, USA) was used for statistical analyses. P-values <0.05 were considered significant.

Ac-PRPPKR-NH2 [MD20, Ac-PRPPKR-NH2]
detection in most tissues and plasma, time post-administration [1]: up to 5 h
stability and bioavailability in vivo [1]: good stability and bioavailability in vivo
detection in liver ([1]; any time point): No MD20 was detected in the liver; also recorded: not detected in liver tissue at any time point
fasted insulin levels ([2]; 15 mg/kg SC daily, about 6 weeks, vs control): significant decrease in insulin levels
leptin levels ([2]; 30 mg/kg SC daily, about 6 weeks, vs control): significant decrease in leptin levels
basal glucose levels ([2]; 5-hour-fasted, SC daily, vs vehicle): No significant differences
body weight gain ([2]; 15, 30 or 45 mg/kg SC daily, significant overall interaction): inhibited body weight gain
glucose clearance during GTT ([2]; SC daily, week 4, vs control, all doses): No significant differences in glucose clearance
insulin tolerance test (ITT) ([2]; SC daily, week 6, 1 IU/kg insulin, vs control): did not detect any significant differences
